The values that follow come from PMC7830330, “A New CDK2 Inhibitor with 3-Hydrazonoindolin-2-One Scaffold Endowed with Anti-Breast Cancer Activity: Design, Synthesis, Biological Evaluation, and In Silico Insights” (Molecules, 2021).

What all share (type): biochemical
Test [1] concerns the target T1, c-Met (Homo sapiens, UniProt P08581). The test is described as follows: Kinase-Glo Plus luminescence kinase assay, single dose […]. (In general: In Kinase-Glo more light means more ATP remaining.)
Test [2] addresses T1, c-Met. The test is described as follows: Kinase-Glo Plus luminescence kinase assay, single dose […] (weak, partial inhibition).
Test [3] has as its target T2, CDK2 (Homo sapiens, UniProt P24941).
T2 construct: with cyclin E (IC50)
The test is described as follows: in vitro kinase assay, dose-response on CDK2/E (Kinase-Glo Plus luminescence described for CDK2/cyclin A2).

The structures appear in SMILES notation.

For orientation: inhibition means the percentage by which the read-out fell short of the control. What is called IC50 is the concentration that inhibits the measured activity by half.

T1 sequence (P08581 25-307): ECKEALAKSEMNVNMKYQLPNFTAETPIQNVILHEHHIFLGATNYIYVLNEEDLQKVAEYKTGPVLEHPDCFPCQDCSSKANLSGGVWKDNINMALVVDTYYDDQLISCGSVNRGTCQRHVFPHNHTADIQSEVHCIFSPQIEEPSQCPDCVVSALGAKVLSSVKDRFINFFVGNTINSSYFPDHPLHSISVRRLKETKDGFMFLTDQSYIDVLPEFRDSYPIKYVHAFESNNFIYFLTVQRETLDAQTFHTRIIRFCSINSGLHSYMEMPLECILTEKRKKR
T1 sequence (P08581 308-1390): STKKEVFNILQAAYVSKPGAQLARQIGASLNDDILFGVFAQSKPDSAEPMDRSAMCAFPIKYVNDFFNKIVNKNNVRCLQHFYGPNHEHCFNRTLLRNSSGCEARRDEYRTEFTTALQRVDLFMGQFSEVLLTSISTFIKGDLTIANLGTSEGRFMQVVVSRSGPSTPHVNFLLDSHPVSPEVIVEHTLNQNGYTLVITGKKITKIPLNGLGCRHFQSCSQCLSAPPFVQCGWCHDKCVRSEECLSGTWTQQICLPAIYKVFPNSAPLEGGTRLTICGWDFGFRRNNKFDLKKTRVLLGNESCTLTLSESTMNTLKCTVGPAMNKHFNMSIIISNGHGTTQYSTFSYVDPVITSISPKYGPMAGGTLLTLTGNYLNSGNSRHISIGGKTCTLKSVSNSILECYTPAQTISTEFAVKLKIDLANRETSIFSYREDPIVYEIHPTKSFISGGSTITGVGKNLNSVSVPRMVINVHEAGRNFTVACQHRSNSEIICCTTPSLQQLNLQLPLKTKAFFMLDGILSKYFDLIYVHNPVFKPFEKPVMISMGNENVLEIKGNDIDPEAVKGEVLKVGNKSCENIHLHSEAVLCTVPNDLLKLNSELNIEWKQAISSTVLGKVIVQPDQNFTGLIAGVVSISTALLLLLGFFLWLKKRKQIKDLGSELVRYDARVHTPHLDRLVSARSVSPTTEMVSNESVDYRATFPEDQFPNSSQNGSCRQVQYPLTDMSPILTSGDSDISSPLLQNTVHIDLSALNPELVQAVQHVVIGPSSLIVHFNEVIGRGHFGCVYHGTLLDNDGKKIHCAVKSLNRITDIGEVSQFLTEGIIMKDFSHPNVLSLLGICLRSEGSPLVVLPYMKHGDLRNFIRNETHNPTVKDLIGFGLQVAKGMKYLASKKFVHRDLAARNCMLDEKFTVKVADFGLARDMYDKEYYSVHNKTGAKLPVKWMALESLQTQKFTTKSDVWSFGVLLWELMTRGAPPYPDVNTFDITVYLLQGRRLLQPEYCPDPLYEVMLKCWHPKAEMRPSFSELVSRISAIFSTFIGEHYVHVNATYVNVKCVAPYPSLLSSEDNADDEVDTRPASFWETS

As to `CN[C@@H]1C[C@H]2O[C@@](C)([C@@H]1OC)n1c3ccccc3c3c4c(c5c6ccccc6n2c5c31)C(=O)NC4` [Staurosporine], the inhibition at 10 µM in test [1] was 100%.
As for `COc1ccc2c(c1)/C(=N\NC(=O)Cc1c[nH]c3ccccc13)C(=O)N2` [HI 5], the inhibition at 10 µM in test [2] turned out to be 27%. Besides, in test [3], the IC50 came to 6.32 µM.
